Test results taken from patent US12226381B2, “Composition of fused tricyclic gamma-amino acid derivatives and the preparation thereof” (SICHUAN HAISCO PHARMACEUTICAL CO., LTD., priority 2018, dated 2025).

System: CCI molded SD rats
Test: Rat CCI-induced nociception sensitization model, mechanical pain threshold
Format: in vivo
Conditions: single oral administration; for mechanical pain threshold: FIGS. 2 and 3
Protocol: 3. Rat CCI-Induced Nociception Sensitization Model
SD rats of 160-180 g were purchased from Charles River (Beijing) with a license number of sCXK (Beijing)-2012-001 and a qualification number of 11400700254251. The surgery was performed to establish the CCI model as follows: the animals ware first anesthetized, then the left posterior sciatic nerve was exposed. A 2 mm long PE-90 catheter was applied to the middle site of the sciatic nerve. Finally the muscle and skin were sutured. Adaptation of the animal's left hind limb at 15g was carried out from day 10 after the surgery, three times a week.
The baseline testing was performed 17 days after surgery (starting from 2g at the time of testing, with an upper limit of 8g and a lower limit of 1g which is the −24h point), with a pain threshold of 1-4g as a grouping criterion. Grouping was done according to baseline test results, with 10 animals per group. The animals in the group were fasted but given water overnight. On the second day, mechanical pain values were tested at 2 h, 4 h and 6 h after oral/intragastric administration. The test started at 8 g, with an upper limit of 15g and a lower limit of 1g.
The data were processed according to equation (1) to calculate the PWT 50% value, where Xf is the log value of the final test fibers used in the test, k is a table value (Chaplan et al., 1994), and δ is the mean difference (here 0.224). PWT50%(g)=(10[Xf+kδ])/10000 [equation (1)]
The data were expressed in a form of mean±standard deviation (X±s) and were statistically analyzed using one-way ANOVA and Dunnett's t test (Graphpad prism 6.01).

SMILES | effective dose [mg/kg] | mechanical pain threshold
NC[C@@]1(CC(=O)O)[C@@H]2CC[C@H]3C[C@@H]2[C@@H]1C3.O=S(=O)(O)c1ccccc1 [Compound 1] | 3 | significantly increased
CC(C)C[C@H](CN)CC(=O)O [pregabalin] | 10 | significantly increased
